According to PubChem BioAssay AID1033 (Sanford-Burnham Center for Chemical Genomics, 2008):
Active and inactive are the calls of the source. The rule behind the calls is not given here.

Molecular target: Chaperone protein DnaK (Escherichia coli (strain K12)) (UniProt P0A6Y8)
Experiment: E. coli DnaK SBD ligand binding – biophysical, NMR, chaperone (AID 1033)
Conditions: Purified DnaK SBD

Chain of Chaperone protein DnaK (Escherichia coli (strain K12)) (P0A6Y8 whole entry, looked up): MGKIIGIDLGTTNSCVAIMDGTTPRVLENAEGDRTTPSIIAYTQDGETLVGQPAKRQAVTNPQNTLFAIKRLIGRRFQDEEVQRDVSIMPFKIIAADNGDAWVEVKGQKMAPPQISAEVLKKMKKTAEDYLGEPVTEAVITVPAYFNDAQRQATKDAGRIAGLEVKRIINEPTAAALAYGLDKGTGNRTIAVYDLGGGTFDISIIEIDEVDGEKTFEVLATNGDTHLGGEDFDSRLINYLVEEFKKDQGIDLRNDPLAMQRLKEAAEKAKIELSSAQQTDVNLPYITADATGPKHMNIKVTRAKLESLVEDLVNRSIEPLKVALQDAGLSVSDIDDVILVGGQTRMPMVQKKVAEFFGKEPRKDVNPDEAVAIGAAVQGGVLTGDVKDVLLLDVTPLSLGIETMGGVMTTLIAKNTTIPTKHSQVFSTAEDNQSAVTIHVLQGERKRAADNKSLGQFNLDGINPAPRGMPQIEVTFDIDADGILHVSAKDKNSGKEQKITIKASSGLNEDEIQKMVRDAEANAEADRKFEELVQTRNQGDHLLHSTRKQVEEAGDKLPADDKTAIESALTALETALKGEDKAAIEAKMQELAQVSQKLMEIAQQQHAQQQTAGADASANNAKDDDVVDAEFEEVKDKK

| SMILES | Kd |
| --- | --- |
| O=C1CSC(=NC(=O)c2ccccc2)N1 | > 4 mM (inactive) |
| NC12CC3CC(C1)CC(O)(C3)C2 | > 4 mM (inactive) |
| C[N+](C)(C)CC(O)CC(=O)O (stereo not given) | > 4 mM (inactive) |
| O=C1CCN(c2ccccc2)N1 | > 4 mM (inactive) |
| NC(=O)CSc1ccc(-c2ccccc2)nn1 | > 4 mM (inactive) |
| CC1=C(CCC(=O)O)c2cc3nc(cc4[nH]c(cc5[nH]c(cc1n2)c(C)c5C(C)O)c(C)c4C(C)O)C(C)=C3CCC(=O)O (stereo not given) | > 4 mM (inactive) |
| COCC(=O)Nc1cc2c3c(c1)CCN3C(=O)CC2 | > 4 mM (inactive) |
| CCOC(=O)C1CCC(=O)c2cccn21 (stereo not given) | > 4 mM (inactive) |
| COc1c2ccoc2nc2c(OC)c(OCC(O)C(C)(C)O)ccc12 (stereo not given) | > 4 mM (inactive) |
| CNC(=O)C1CC(=O)N(c2ccc(O)cc2)C1 (stereo not given) | > 4 mM (inactive) |
| Cc1nc(-c2cccc(C(=O)O)c2)cs1 | > 4 mM (inactive) |
| Nc1ncnc2nc[nH]c12 | > 4 mM (inactive) |
| S=c1nc(Cc2ccccc2)[nH][nH]1 | > 4 mM (inactive) |
| COc1c(-c2coc3cc4c(cc3c2=O)CC(OC(C)=O)C(C)(C)O4)ccc2c1C=CC(C)(C)O2 (stereo not given) | > 4 mM (inactive) |
| COC(=O)NNc1ncnc(N)c1[N+](=O)[O-] | > 4 mM (inactive) |
| CC(=O)Oc1c(-c2ccccc2)oc2c(CC=C(C)C)c3c(c(OC(C)=O)c2c1=O)C=CC(C)(C)O3 | > 4 mM (inactive) |
| NCc1csc2ccccc12 | > 4 mM (inactive) |
| O=c1n(-c2cccc(Cl)c2)c(=O)n2n1CCC2 | > 4 mM (inactive) |
| O=c1cc(-c2ccccc2)oc2cc(O)cc(O)c12 | > 4 mM (inactive) |
| Cc1[nH]c2ccccc2c1C(=O)CSc1ncn[nH]1 | > 4 mM (inactive) |
| Cc1cc(C)n(S(=O)(=O)c2ccc(C)c(C)c2C)n1 | > 4 mM (inactive) |
| C=CC(C1=CC(=O)C(OC)=CC1=O)c1ccccc1 (stereo not given) | > 4 mM (inactive) |
| CCOC(=O)c1csc(N)n1 | > 4 mM (inactive) |

| SMILES | Kd |
| --- | --- |
| CC(=O)Oc1ccc(-c2cc(=O)c3c(OC(C)=O)cc(OC(C)=O)cc3o2)cc1 | > 4 mM (inactive) |
| CN1CCC(NC(=O)c2cccnc2)CC1 | > 4 mM (inactive) |
| O=P(c1ccccc1)(c1ccccc1)C1CCOCC1 | > 4 mM (inactive) |
| O=S1(=O)CCC(NCc2ccccc2)C1 (stereo not given) | > 4 mM (inactive) |
| O=C(O)c1csc2ccccc12 | > 4 mM (inactive) |
| O=c1[nH]c(N2CCOCC2)nc2ccccc12 | > 4 mM (inactive) |
| Cc1[nH]c2ccccc2c(=O)c1CO | > 4 mM (inactive) |
| O=C(NCc1cccs1)c1nn2cccnc2c1Cl | > 4 mM (inactive) |
| COCCn1c(N)nc2c1c(=O)[nH]c(=O)n2C | > 4 mM (inactive) |
| S=C(CN1CCCC1=S)N1CCOCC1 | > 4 mM (inactive) |
| Cc1n[nH]c(=S)n(/N=C/c2cccs2)c1=O | > 4 mM (inactive) |
| CSc1nc(NC(C)(C)C)nc(N2CCOCC2)n1 | > 4 mM (inactive) |
| Cc1sc(N)c(C(N)=O)c1C | > 4 mM (inactive) |
| COc1cc2cc[n+]3cc4c(OC)c(OC)ccc4cc3c2cc1OC | > 4 mM (inactive) |
| Nc1ccc(-n2cncn2)cc1 | > 4 mM (inactive) |
| CC(C)=CCc1c2c(c(O)c3c(=O)c(O)c(-c4ccccc4)oc13)C=CC(C)(C)O2 | > 4 mM (inactive) |
| C[C@@H]1CC[C@@]2(OC1)OC1C(O)C3C4CC[C@H]5C[C@H](O[C@@H]6O[C@H](CO)[C@H](O[C@@H]7O[C@H](CO)[C@@H](O)[C@H](O[C@@H]8OC[C@@H](O)[C@H](O)[C@H]8O)[C@H]7O[C@@H]7O[C@H](CO)[C@H](O)[C@H](O[C@@H]8O[C@H](CO)[C@@H](O)[C@H](O)[C@H]8O)[C@H]7O)[C@H](O)[C@H]6O)[C@H](O)C[C@]5(C)C4CC[C@]3(C)C1[C@@H]2C (stereo not given in full) | > 4 mM (inactive) |
| O=C(CC1SC(=O)NC1=O)Nc1nccs1 (stereo not given) | > 4 mM (inactive) |
| CC(=O)c1ccc(NC(=O)c2ocnc2C)cc1 | > 4 mM (inactive) |
| Cc1nn(C)c(N2CCOCC2)c1N | > 4 mM (inactive) |
| Cc1cccc(C(C)C)c1NC(=O)c1cccnc1 | > 4 mM (inactive) |
| OCc1ccc2occc2c1 | > 4 mM (inactive) |
| COC(=O)Cc1cc(=O)n(-c2ccccc2)[nH]1 | > 4 mM (inactive) |

| SMILES | Kd |
| --- | --- |
| Cc1cc(C(=O)N2CCN(c3ncccn3)CC2)c(C)o1 | > 4 mM (inactive) |
| OCC1CNc2ccccc2O1 (stereo not given) | > 4 mM (inactive) |
| N#Cc1cnn(-c2ccc(Cl)cc2)c1N | > 4 mM (inactive) |
| Nc1ccc2c(c1)OCCO2 | > 4 mM (inactive) |
| OCc1cccc2c1OCCO2 | > 4 mM (inactive) |
| O=C(O)c1ccc2ncccc2c1 | > 4 mM (inactive) |
| COc1ccc(-c2cc(=O)c3c(O)c(OC)c(O[C@H]4O[C@H](CO[C@@H]5O[C@@H](C)[C@H](O)[C@@H](O)[C@H]5O)[C@@H](O)[C@H](O)[C@H]4O)cc3o2)cc1 | > 4 mM (inactive) |
| Cc1cc(C(=O)Nc2sc(C)c(C)c2C#N)no1 | > 4 mM (inactive) |
| Cc1ccc(C(=O)CS(C)(=O)=O)cc1 | > 4 mM (inactive) |
| COC(=O)c1cccnc1Oc1ccccc1 | > 4 mM (inactive) |
| Cc1c(C)c2c(c(C)c1O)CCC(C)(CCCC(C)CCCC(C)CCCC(C)C)O2 (stereo not given) | > 4 mM (inactive) |
| C/C=C/C(=O)Nc1ccc(NC(C)=O)cc1 | > 4 mM (inactive) |
| N#CCSc1nc(-c2ccccc2)cs1 | > 4 mM (inactive) |
| NC(=O)CN1CC(c2ccccc2)CC1=O (stereo not given) | > 4 mM (inactive) |
| O=S(=O)(NCc1ccco1)c1cccc2cccnc12 | > 4 mM (inactive) |
| COC(=O)C1=CCCN(C)C1 | > 4 mM (inactive) |
| Cc1cccc(C)c1NC(=O)CN1CCOCC1 | > 4 mM (inactive) |
| COc1cc(-c2coc3cc(OCc4ccccc4)c(OC)c(O)c3c2=O)cc(O)c1OC | > 4 mM (inactive) |
| CC(=O)Nc1sccc1C(=O)NC(N)=O | > 4 mM (inactive) |
| CC(=O)N=c1cccc(NC(C)=O)n1O | > 4 mM (inactive) |
| Nc1cccc(C(=O)Nc2ccc(N)cc2Cl)c1 | > 4 mM (inactive) |
| CC(=O)c1c(O)n(C)c(=S)n(C)c1=O | > 4 mM (inactive) |
| COC(=O)[C@@H]1C(O)CC[C@H]2CN3CCc4c([nH]c5ccccc45)[C@@H]3C[C@@H]21 (stereo not given in full) | > 4 mM (inactive) |

| SMILES | Kd |
| --- | --- |
| OCC12COC3c4ccccc4C(OC1)N32 (stereo not given) | > 4 mM (inactive) |
| O=C(O)Cn1cc(C(F)(F)F)ccc1=O | > 4 mM (inactive) |
| C[C@@H]1CC[C@@]23CCC4(C)[C@@](C=CC5[C@@]6(C)CC[C@H](O)C(C)(C)C6CC[C@]54C)(OC2=O)C3[C@H]1C (stereo not given in full) | > 4 mM (inactive) |
| Cc1occc1C(=O)NC1CCN(C)CC1 | > 4 mM (inactive) |
| Cn1cnc2c(=O)[nH]cc([N+](=O)[O-])c21 | > 4 mM (inactive) |
| O=c1cc(O)n(-c2ccc(F)cc2)c(=S)[nH]1 | > 4 mM (inactive) |
| COc1ccc(-c2coc3cc(OC)cc(OC)c3c2=O)cc1 | > 4 mM (inactive) |
| CCC(/C=C/[C@@H](C)[C@H]1CCC2C3CC=C4C[C@@H](O)CC[C@]4(C)C3CC[C@@]21C)C(C)C (stereo not given in full) | > 4 mM (inactive) |
| Cc1oc2nc3c(c(=O)[nH]c(=O)n3C)n2c1C | > 4 mM (inactive) |
| O=C(O)c1ccc2nccnc2c1 | > 4 mM (inactive) |
| CC(C)(OC(=O)c1ccccc1)[C@@H]1Cc2cc3ccc(=O)oc3cc2O1 | > 4 mM (inactive) |
| O=C(O)c1ncoc1-c1ccccc1 | > 4 mM (inactive) |
| CCNC(=S)N1CCCC(C(N)=O)C1 (stereo not given) | > 4 mM (inactive) |
| Nc1nnc(-c2ccncc2)s1 | > 4 mM (inactive) |
| Cc1cc(C(F)(F)F)n2nc(C(=O)O)c(Cl)c2n1 | > 4 mM (inactive) |
| CNC(=O)COc1cccc2c1CCNC2=O | > 4 mM (inactive) |
| OCc1ccc(-n2cncn2)cc1 | > 4 mM (inactive) |
| CCn1ccc(C(=O)Nc2nccs2)n1 | > 4 mM (inactive) |
| COc1ccccc1-c1noc(-c2ccco2)n1 | > 4 mM (inactive) |
| CCOC(=O)C1CCN(Cc2ccccc2)CC1=O (stereo not given) | > 4 mM (inactive) |
| CN1C(=O)c2ccc(C(=O)NC3CCCCC3)cc2C1=O | > 4 mM (inactive) |
| CNC(=O)N1CCN(C(=O)NC)CC1 | > 4 mM (inactive) |
| COC(=O)c1sc(N)nc1C | > 4 mM (inactive) |

| SMILES | Kd |
| --- | --- |
| COc1cc2occc2c2oc(=O)ccc12 | > 4 mM (inactive) |
| CC(C)CCCC(C)[C@H]1CCC2C3CC=C4C[C@@H](O)CC[C@]4(C)C3CC[C@@]21C (stereo not given in full) | > 4 mM (inactive) |
| CC(C)n1nnc2cc(C(=O)O)ccc21 | > 4 mM (inactive) |
| CC(=O)Nc1cnn(Cc2ccc(Br)cc2)c1 | > 4 mM (inactive) |
| Nc1cccc2nsnc12 | > 4 mM (inactive) |
| NC(=O)C1CCN(c2ncnc(N)c2[N+](=O)[O-])CC1 | > 4 mM (inactive) |
| Cc1cc(NC(=O)c2ccccc2C(=O)O)no1 | > 4 mM (inactive) |
| Cc1cc(C(=O)NC(C)c2ccncc2)cs1 (stereo not given) | > 4 mM (inactive) |
| Cc1ccc(S(=O)(=O)CC(=O)N(C)C)cc1 | > 4 mM (inactive) |
| O=P(O)(Cc1ccccc1)c1ccccc1 | > 4 mM (inactive) |
| O=c1[nH]cc(CN2CCOCC2)c(=O)[nH]1 | > 4 mM (inactive) |
| CCNC(CC(=O)Nc1cccc([N+](=O)[O-])c1)C(=O)O (stereo not given) | > 4 mM (inactive) |
| Cc1ccccc1NC(=O)CSc1ccnc(=O)[nH]1 | > 4 mM (inactive) |
| c1cc(CNc2ccc3c(c2)OCCO3)ccn1 | > 4 mM (inactive) |
| CSc1ccc2nnc(-c3cccnc3)n2n1 | > 4 mM (inactive) |
| Cc1ccc(SCC(=O)N2CCOCC2)cc1 | > 4 mM (inactive) |
| Nc1cccc(S(=O)(=O)N2CCCC2)c1 | > 4 mM (inactive) |
| COc1ccc(C(=O)O)cc1OC | > 4 mM (inactive) |
| COc1ccc(-c2cc3nc4n(c(=O)c3s2)CCC4)cc1 | > 4 mM (inactive) |
| CCOC(=O)CSCC(=O)Nc1nccs1 | > 4 mM (inactive) |
| Cn1ncc(C(=O)O)c1-c1ccccc1 | > 4 mM (inactive) |
| NC(=O)C1CCN(C(=S)Nc2ccccc2)CC1 | > 4 mM (inactive) |
| Clc1ccccc1-c1nc(-c2cccnc2)no1 | > 4 mM (inactive) |
